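Cells were grown in 96-well plates and exposed to each compound for 48 hours at five concentrations; endpoints were interpolated linearly between bracketing concentrations, or set to the highest concentration if not reached. TGI is the concentration that stops growth completely.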
Legend:
Assay in all cases: NCI tumour cell line growth inhibition, 48 h
DLD-1 colon = system: DLD-1 colon
DMS 114 small cell lung = system: DMS 114 small cell lung
DMS 273 small cell lung = system: DMS 273 small cell lung
HOP-18 NSCLC = system: HOP-18 NSCLC
HOP-92 NSCLC = system: HOP-92 NSCLC
K-562 leukemia = system: K-562 leukemia
M19-MEL melanoma = system: M19-MEL melanoma
OVCAR-4 ovarian = system: OVCAR-4 ovarian
SK-OV-3 ovarian = system: SK-OV-3 ovarian
U251 CNS = system: U251 CNS
TK-10 renal = system: TK-10 renal
MDA-MB-231 breast = system: MDA-MB-231 breast
T-47D breast = system: T-47D breast

Compound	TGI (DLD-1 colon) [µM]	TGI (DMS 114 small cell lung) [µM]	TGI (DMS 273 small cell lung) [µM]	TGI (HOP-18 NSCLC) [µM]	TGI (HOP-92 NSCLC) [µM]	TGI (K-562 leukemia) [µM]	TGI (M19-MEL melanoma) [µM]	TGI (OVCAR-4 ovarian) [µM]	TGI (SK-OV-3 ovarian) [µM]	TGI (U251 CNS) [µM]	TGI (TK-10 renal) [µM]	TGI (MDA-MB-231 breast) [µM]	TGI (T-47D breast) [µM]
O=S(=O)(CCBr)CCBr	8.66	6.72	15.1	32	20.9	> 48.8	15	22.5	43.6	29.2	–	–	–
COc1cc2c(cc1OC)C(C(CO)CO)N(CC(O)CCl)CC2 (stereo not given)	> 100	–	> 100	–	> 100	> 100	> 100	> 100	> 100	> 100	> 100	–	–
N#CC1=C(N)n2c(s/c(=C\c3ccc(Cl)cc3)c2=O)=C(c2nc3ccccc3[nH]2)C1c1ccc(Cl)cc1 (stereo not given)	15.4	4.37	6.23	–	0.954	4.94	9.15	5.22	–	2.89	2.62	–	–
O=C(/N=C/c1c(O)c2ccccc2oc1=O)Nc1ccccc1	> 100	> 100	> 100	> 100	> 100	> 100	> 100	> 100	> 100	> 100	> 100	–	–
Cc1c(Cl)c2ccccc2n1S(=O)(=O)c1ccccc1	> 100	> 100	> 100	–	54.2	> 100	–	> 100	–	> 100	> 100	–	–
COc1ccc(-c2cc(=O)c3cc4c(cc3[nH]2)OCO4)cc1OC	> 100	> 100	> 100	> 100	> 100	> 100	> 100	> 100	> 100	> 100	> 100	–	–
CN(C)c1ccc(C(=C(c2ccc(N(C)C)cc2)c2ccc(N(C)C)cc2)c2ccc(N(C)C)cc2)cc1	41.5	49.3	38.9	26.1	–	36.9	70.9	> 100	41.8	28.1	31.5	–	–
COc1ccc2c(CCN)c(C(=O)O)[nH]c2c1	–	–	–	–	> 100	> 100	–	> 100	> 100	> 100	> 100	> 100	> 100
NC(CCCC(N)P(=O)(O)c1ccccc1)P(=O)(O)c1ccccc1 (stereo not given)	> 261	> 261	> 261	> 261	> 261	> 261	> 261	> 261	> 261	> 261	> 261	–	–
C[C@H](CCC(=O)NCCS(=O)(=O)O)[C@H]1CC[C@H]2[C@@H]3CC[C@@H]4C[C@H](O)CC[C@]4(C)[C@H]3CC[C@]12C	–	–	–	–	> 100	> 100	–	> 100	> 100	> 100	> 100	> 100	> 100
O=C1CC2(c3ccccc3)ON=C(c3ccccc3)N2c2ccccc2N1 (stereo not given)	–	–	–	–	83.6	> 100	–	> 100	51.7	> 100	> 100	> 100	> 100
Cc1cccc2c(=O)c([Se]c3coc4c(C)cccc4c3=O)coc12	41.5	31.7	> 100	41.2	40.5	> 100	30.3	35.2	31.5	23.8	69.7	–	–
CC(=O)OCCCOCn1c(Cc2ccccc2)c(C)c(=O)[nH]c1=O	–	–	–	–	> 100	> 100	–	> 100	> 100	> 100	> 100	> 100	> 100
COC(=O)C1C/C(=C/N(C)C)C(=S)N1 (stereo not given)	–	–	–	–	> 100	> 100	–	> 100	> 100	> 100	> 100	> 100	> 100
N#CCc1n[nH]c(Cc2ccccc2)n1	–	–	–	–	> 100	> 100	–	> 100	> 100	> 100	> 100	> 100	> 100
Cc1ccsc1/C=N/Nc1nc2ccccc2s1	–	–	–	–	49.5	34.9	–	72.9	35.3	28.3	26.9	27.5	> 100
O=C(c1ccc(Cl)cc1)c1ccc(OCCCOc2ccc(C(=O)c3ccc(Cl)cc3)cc2)cc1	> 100	> 100	> 100	–	> 100	> 100	> 100	> 100	> 100	> 100	> 100	–	–
COC(=O)c1c(O)ccc2c1c1c(n2Cc2ccccc2Cl)C(=O)c2ccccc2C1=O	–	–	–	–	29.8	97.3	–	12.6	27.2	30.2	30.6	32.3	27.4
O=C1c2ccc(O)cc2C(=O)c2ccc(O)cc21	> 100	> 100	> 100	–	> 100	> 100	> 100	> 100	84.8	> 100	> 100	–	–
CC(C)/C(Cl)=N\OC(=O)Nc1ccccc1F	–	–	–	–	4.06	6.52	–	31.7	33.4	31.1	27.6	22.6	49.5
CC1(C)N=C(C(N)=O)c2ncn(N)c2N1	–	–	–	–	> 100	> 100	–	> 100	> 100	> 100	> 100	> 100	> 100
C[C@]12CC[C@H]3[C@@H](CC=C4C[C@@H](N5CCCC5)CC[C@@]43C)[C@@H]1C[C@H](N1CCOCC1)[C@@H]2O	–	–	–	–	> 100	74.3	–	> 100	> 100	> 100	> 100	> 100	> 100
CCCCC(=O)NS(=NC(=O)c1ccccc1)C(Cl)(Cl)Cl (stereo not given)	–	–	–	–	> 100	> 100	–	> 100	> 100	> 100	> 100	> 100	> 100
Cc1nc(C)c(C(=O)NNC(N)=S)cc1C(=O)NNC(N)=S	–	–	–	–	> 100	> 100	–	> 100	> 100	> 100	> 100	> 100	> 100
Cc1[nH]c2c(c1C)S(=O)(=O)c1cc3ccccc3nc1N2	–	–	–	–	> 100	> 100	–	32.4	> 100	23.8	> 100	76.1	> 100
CCN(CC)CC1CCCCN1CC(=O)N1c2ccccc2NC(=O)CC1C (stereo not given)	–	–	–	–	> 100	> 100	–	> 100	> 100	> 100	> 100	> 100	> 100
N/C(=N\S(=O)(=O)c1ccc(S(=O)(=O)c2ccccc2)s1)Nc1ccc(Cl)cc1	–	–	–	–	39.1	88.2	–	94.8	> 100	27.8	51.1	28.8	> 100
COC(=O)[C@]1(c2cc3ccccc3n2S(=O)(=O)c2ccccc2)CC2CN(C(C)=O)C1CC2=O (stereo not given in full)	–	–	–	–	16.5	12.1	–	10.7	21.7	3.08	23.4	7.4	7.05
C[C@]12CCC(=O)C=C1CC[C@@H]1[C@@H]2[C@@H](O)C[C@@]2(C)[C@H]1CC[C@]2(O)C(=O)COC(=O)COCC(=O)O	> 100	> 100	> 100	> 100	> 100	> 100	> 100	> 100	> 100	> 100	> 100	–	–
COC(=O)NCCc1[nH]nc2c1C(=O)C=C(N1CCOCC1)C2=O	–	–	–	–	> 100	> 100	–	> 100	> 100	> 100	> 100	> 100	> 100

Reference: PubChem BioAssay (NCI)
